SMILES strings stand for the structures. Structures can show the parent of a compound that is named as a salt. Where two headings read alike, the source gives them in different places.

Assay [1] has as its target T1, SARS-CoV-2 PLpro (nsp3 1564–1878) (Severe acute respiratory syndrome coronavirus 2, UniProt P0DTD1). In words: biochemical. More on the design: FRET-quenched peptide (Pro3) cleavage by PLpro, 10 min pre-incubation, slope over 20 min, normalised to no-compound control. Conditions: high concentration screen, read-out: % of control remaining.
For assay [2], the target named is T1, SARS-CoV-2 PLpro (nsp3 1564–1878). The assay is described as follows: biochemical. More on the design: FRET-quenched peptide (Pro3) cleavage by PLpro, 10 min pre-incubation, slope over 20 min, normalised to no-compound control. Conditions: low concentration screen, read-out: % of control remaining.

With `C=C1C=C(C)n2nc(CC3C(=O)C[C@](CCc4cc(CC)nc(CC)c4)(C4CCCC4)OC3=O)nc2N1` (stereo partly drawn) [(6R)-6-cyclopentyl-6-(2-(2,6-diethylpyridin-4-yl)ethyl)-3-((7-methyl-5-methylene-4,5-dihydro-[1,2,4]triazolo[1,5-a]pyrimidin-2-yl)methyl)dihydro-2H-pyran-2,4(3H)-dione], in assay [1] (Well no.=5607), the remaining activity at 3.75 µM was determined as 105%. In assay [2] (Well no.=5607), the remaining activity at 1.25 µM amounted to 102%.

For the molecule `CCCCCC/C=C/C=C\CCCCCCCC(=O)O` [(9Z,11E)-Octadecadienoic acid], the remaining activity at 3.75 µM in assay [1] (Well no.=4354) stood at 106%. Further, the remaining activity at 1.25 µM in assay [2] (Well no.=4354) worked out at 106%.

Consider `CC(C)=CCC[C@](C)(O)[C@H]1CC[C@]2(C)[C@@H]1[C@H](O)C[C@@H]1[C@@]3(C)CC[C@H](O)C(C)(C)[C@@H]3CC[C@]12C` [(20S)-Protopanaxadiol], for which the remaining activity at 3.75 µM in assay [1] (Well no.=6300) stood at 99.5%. Further, the remaining activity at 1.25 µM in assay [2] (Well no.=6300) was determined as 106%.

With `CC(C)=CCC[C@](C)(O)[C@H]1CC[C@]2(C)[C@@H]1[C@H](O)C[C@@H]1[C@@]3(C)CC[C@H](O)C(C)(C)[C@@H]3[C@@H](O)C[C@]12C` [(20S)-Protopanaxatriol], the remaining activity at 3.75 µM in assay [1] (Well no.=8387) is 91.4%. Further, the remaining activity at 1.25 µM in assay [2] (Well no.=8387) is 96.6%.

For the molecule `CC(C)CCC[C@H](C)[C@H]1CC[C@H]2[C@@H]3CCC4=CC(=NO)CC[C@]4(C)[C@H]3CC[C@]12C` [(20S)-cholest-4-en-3-one oxime], in assay [1] (Well no.=5966), the remaining activity at 3.75 µM amounted to 96.1%. Besides, the remaining activity at 1.25 µM in assay [2] (Well no.=5966) was determined as 94.3%.

Take `CN1CCc2cc3c(cc2[C@H]1[C@@H]1OC(=O)c2c1ccc1c2OCO1)OCO3` [(+)-Bicuculline]: the remaining activity at 3.75 µM in assay [1] (Well no.=369) is 98.1%; in assay [1] (Well no.=3679) it was 99.2%. In addition, the remaining activity at 1.25 µM in assay [2] (Well no.=369) came to 103%; in assay [2] (Well no.=3679), 99.7%.

Turning to `COc1ccc2c(c1O)-c1c3c(cc4c1[C@H](C2)N(C)CC4)OCO3` [(+)-Bulbocapnine hydrochloride], the remaining activity at 3.75 µM in assay [1] (Well no.=494) was determined as 102%. The remaining activity at 1.25 µM in assay [2] (Well no.=494) stood at 102%.

`CC(C)(C)[C@]1(O)CCN2C[C@H]3c4ccccc4CCc4cccc(c43)[C@@H]2C1` [(+)-Butaclamol hydrochloride]: the remaining activity at 3.75 µM in assay [1] (Well no.=732) amounted to 98.3%. Moreover, the remaining activity at 1.25 µM in assay [2] (Well no.=732) was 98.3%.

`Oc1cc(O)c2c(c1)O[C@H](c1ccc(O)c(O)c1)[C@@H](O)C2` [(+)-Catechin Hydrate]: in assay [1] (Well no.=283), the remaining activity at 3.75 µM was 99.7%. For the same molecule, in assay [2] (Well no.=283), the remaining activity at 1.25 µM turned out to be 98%.

On to `CN1Cc2c(ccc3c2OCO3)[C@@H]2[C@H]1c1cc3c(cc1C[C@@H]2O)OCO3` [(+)-Chelidonine], for which the remaining activity at 3.75 µM in assay [1] (Well no.=3439) amounted to 97.2%. Besides, in assay [2] (Well no.=3439), the remaining activity at 1.25 µM is 95.5%.

Turning to `C=C[C@H]1CN2CC[C@H]1C[C@@H]2[C@@H](O)c1ccnc2ccccc12` [(+)-Cinchonine], the remaining activity at 3.75 µM in assay [1] (Well no.=3198) is 107%. Besides, the remaining activity at 1.25 µM in assay [2] (Well no.=3198) turned out to be 109%.

For the molecule `C[C@@H]1[C@@H]2Cc3ccc(O)cc3[C@@]1(C)CCN2CC1CC1` [(+)-Cyclazocine], the remaining activity at 3.75 µM in assay [1] (Well no.=583) was 98.8%. In assay [2] (Well no.=583), the remaining activity at 1.25 µM amounted to 72.1%.

For the molecule `C=C1C[C@]23C[C@@]1(O)CC[C@H]2[C@@]12C=C[C@H](O)[C@@](C)(C(=O)O1)[C@H]2[C@@H]3C(=O)O` [(+)-Gibberellic acid], the remaining activity at 3.75 µM in assay [1] (Well no.=3212) was 105%. In assay [2] (Well no.=3212), the remaining activity at 1.25 µM was determined as 103%.

In the case of `COC1=CC(=O)C[C@@H](C)[C@]12Oc1c(Cl)c(OC)cc(OC)c1C2=O` [(+)-Griseofulvin], the remaining activity at 3.75 µM in assay [1] (Well no.=3354) came to 90.2%. Also, in assay [2] (Well no.=3354), the remaining activity at 1.25 µM stood at 88.9%.

On to `C[C@@H]1OC(=O)[C@H]2C[C@H]3CCCC[C@@H]3[C@@H](/C=C/[C@H]3CCC[C@H](C)N3C)[C@@H]12` [(+)-Himbacine], for which the remaining activity at 3.75 µM in assay [1] (Well no.=706) turned out to be 98.4%. Moreover, in assay [2] (Well no.=706), the remaining activity at 1.25 µM was determined as 99.2%.

Take `COc1ccc2c(c1OC)C(=O)O[C@H]2[C@@H]1c2cc3c(cc2CCN1C)OCO3` [(+)-Hydrastine]: the remaining activity at 3.75 µM in assay [1] (Well no.=614) was determined as 97.7%. In addition, the remaining activity at 1.25 µM in assay [2] (Well no.=614) worked out at 96.4%.

Turning to `COc1ccc2c(c1O)-c1c(OC)c(OC)cc3c1[C@H](C2)N(C)CC3` [(+)-Isocorydine hydrochloride], in assay [1] (Well no.=3244), the remaining activity at 3.75 µM was determined as 95.5%. The remaining activity at 1.25 µM in assay [2] (Well no.=3244) is 93.2%.

Consider `C[C@]12N[C@H](Cc3ccccc31)c1ccccc12` [(+)-MK-801 hydrogen maleate], for which, in assay [1] (Well no.=1133), the remaining activity at 3.75 µM came out at 92.1%. In assay [2] (Well no.=1133), the remaining activity at 1.25 µM was 98.4%.

Consider `C[C@@H]1O[C@H](C[N+](C)(C)C)C[C@H]1O` [(+)-Muscarine chloride], for which, in assay [1] (Well no.=3254), the remaining activity at 3.75 µM was found to be 99.2%. Further, in assay [2] (Well no.=3254), the remaining activity at 1.25 µM was determined as 97.9%.

As to `CC[C@@H]1C(=O)OC[C@@H]1Cc1cncn1C` [(+)-Pilocarpine hydrochloride], the remaining activity at 3.75 µM in assay [1] (Well no.=1102) is 96.8%. For the same molecule, in assay [2] (Well no.=1102), the remaining activity at 1.25 µM stood at 96.5%.

For `N[C@@H](Cn1oc(=O)[nH]c1=O)C(=O)O` [(+)-Quisqualic acid], in assay [1] (Well no.=1507), the remaining activity at 3.75 µM worked out at 97.1%. In assay [2] (Well no.=1507), the remaining activity at 1.25 µM is 96.2%.

Consider `O=C1c2c(O)cc(O)cc2O[C@H](c2ccc(O)c(O)c2)[C@H]1O` [(+)-Taxifolin], for which the remaining activity at 3.75 µM in assay [1] (Well no.=3825) is 101%. Moreover, the remaining activity at 1.25 µM in assay [2] (Well no.=3825) was 101%.

For `COc1cc2c(cc1OC)[C@H]1CC(=O)[C@H](CC(C)C)CN1CC2` [(+)-Tetrabenazine], the remaining activity at 3.75 µM in assay [1] (Well no.=8086) was 108%. The remaining activity at 1.25 µM in assay [2] (Well no.=8086) amounted to 107%.

As for `COc1cc2c3cc1Oc1cc(ccc1O)C[C@@H]1c4c(cc(OC)c(O)c4Oc4ccc(cc4)C[C@@H]3N(C)CC2)CC[N+]1(C)C` [(+)-Tubocurarine chloride], the remaining activity at 3.75 µM in assay [1] (Well no.=3471) was found to be 104%. Also, in assay [2] (Well no.=3471), the remaining activity at 1.25 µM was 103%.

In the case of `CC(=O)C1=C(O)C=C2Oc3c(C(C)=O)c(O)c(C)c(O)c3[C@@]2(C)C1=O` [(+)-Usnic acid], the remaining activity at 3.75 µM in assay [1] (Well no.=3394) worked out at 102%. For the same molecule, in assay [2] (Well no.=3394), the remaining activity at 1.25 µM was 98.2%.

For `C[C@H]1OC[C@@H](C[N+](C)(C)C)O1` [(+)-cis-Dioxolane iodide], the remaining activity at 3.75 µM in assay [1] (Well no.=579) is 100%. Moreover, in assay [2] (Well no.=579), the remaining activity at 1.25 µM amounted to 103%.

In the case of `Oc1ccc([C@H]2COc3cc(O)ccc3C2)cc1` [(-)-(S)-Equol], the remaining activity at 3.75 µM in assay [1] (Well no.=7405) turned out to be 107%. Moreover, in assay [2] (Well no.=7405), the remaining activity at 1.25 µM is 110%.

Take `c1cc2c(cc1[C@H]1OC[C@@H]3[C@H]1CO[C@H]3c1ccc3c(c1)OCO3)OCO2` [(-)-Asarinin]: the remaining activity at 3.75 µM in assay [1] (Well no.=3160) was 101%. Also, the remaining activity at 1.25 µM in assay [2] (Well no.=3160) worked out at 98.8%.

Turning to `N[C@H](CC(=O)O)C(=O)O` [(-)-Aspartic acid], the remaining activity at 3.75 µM in assay [1] (Well no.=7063) was determined as 102%. Besides, the remaining activity at 1.25 µM in assay [2] (Well no.=7063) worked out at 103%.

Consider `C=C[C@H]1CN2CC[C@H]1C[C@H]2[C@H](O)c1ccnc2ccccc12` [(-)-Cinchonidine], for which the remaining activity at 3.75 µM in assay [1] (Well no.=3196) was determined as 102%. The remaining activity at 1.25 µM in assay [2] (Well no.=3196) was found to be 101%.

Values taken from PMC8286840, “Identifying SARS-CoV-2 antiviral compounds by screening for small molecule inhibitors of Nsp3 papain-like protease” (Biochemical Journal, 2021).
